Data set [1] relates to hepatic gene expression. The experiment in a line: Global hepatic gene expression profile (GeneChip arrays, correlation coefficients). Format: in vivo, mice. Here is the method: GeneChip oligonucleotide-based high-density array RNA expression assays were performed according to the standard Affrymetrix protocol. The biotinylated, fragmented cRNA was hybridized to the Mu11KsubA and Mu11KsubB GeneChip arrays (Affymetrix, Santa Clara, Calif.), which contain targets for more than 11,000 known mouse genes and ESTs. The arrays were washed, stained and scanned. Scanned image analysis and data quantification were performed using the Affymetrix GeneChip analysis suite v3.2 at default parameter settings. Resultant data were normalized by global scaling.
Data analysis. Data sets were normalized furher using GeneSpring 3.0 (Silicon Genetics, San Carlos, Calif.). Negative expression levels were forced to zero, and the expression data for each animal divided by the median of all experimental values for that chip above an expression level of 10. This step reduced cliip-to-chip signal variation. Fold change in expression was calculated by dividing the mean of the expression levels in the CR groups by the mean of the expression levels in the control group.

Data set [2] deals with GRP78 mRNA. The experiment in a line: Hepatic GRP78 mRNA in fasted and refed mice (dot-blot). Format: in vivo. The conditions noted are these: liver; for GRP78 mRNA response to feeding (refed mice): fasted 48 h, i.p. injection 30 min before and 30 min after feeding, killed 1.5 h after feeding, dibutyryl-cAMP given with theophylline; for GRP78 mRNA in fasted mice: mice fasted 48 h, two i.p. injections; for postprandial induction of GRP78 mRNA in STZ-diabetic mice: STZ-induced diabetes combined with dibutyryl-cAMP and theophylline. How it is done: (§1) Retired male Swiss-Webster breeder mice were purchased from Jackson Laboratories. Beginning 30 days before the studies, the mice were fed Monday and Wednesday 11 g and Friday 16.6 g of the control diet daily at 0900 h. In fasting-feeding studies, mice were deprived of food for 48 h, fed 5.5 g of the control diet at 0900 h, and killed 90 min later. The food was consumed within 30 min. Diabetes was induced by three weekly intraperitoneal injections of streptozotocin [10 mg/100 g body weight (b.w.)] in 50 mM sodium citrate, pH 4.5. Mice were diabetic one week after the last injection. Only mice with blood glucose level higher than 3 mg/ml were used. Mice injected with equivalent volumes of sodium citrate served as controls for the STZ-diabetic mice. Adrenalectomized and sham-operated mice were purchased from Jackson Laboratories. Dibutyryl cAMP (Sigma; 18 mg.100 g b.w.), and theophylline (Sigma; 3 mg/100 g b.w), glucagon (Sigma; 300 μg/100 g b.w.), dexamethasone (Sigma; 125 μg/100 g b.w), cycloheximide (Sigma; 4 mg.100 g b.w.), and puromycin (Sigma; 10 mg.100 g b.w.), were administered intraperitonealy to mice as specified in the figure legends. Mice received two doses of each drug or drug combination. The first injection was administered 30 min before feeding, and the second injection was administered 30 min after feeding. Mice were killed 1.5 h after the start of feeding. Drug-injected mice consumed similar amounts of food as control animals during the feeding period. All animal use protocols were approved by the institutional animal use committee of the University of California, Riverside.
Mice were killed and the livers, kidneys, and muscle were removed. Muscle from the hind legs and back was removed and pooled for each animal. Tissues were flash frozen in liquid nitrogen. Approximately 0.2 g of frozen tissue was homogenized for 40 s in 4 ml of TRI Reagent (Molecular Research Center, Cincinnati, Ohio) using a Tekmar Tissuemizer (Tekmar, Cincinnait, Ohio) at a setting of 55. RNA was isolated as described by the TRI Reagent supplier. RNA was resuspended in FORMAzol (Molecular Research Center) and Northern and dot blots were performed using 20 and 10 μg of RNA respectively. The RNA was analyzed using Northern blots to verify its integrity. Dot blots were used to quantify mRNA levels (24; 27). Specific mRNA levels were normalized to the level of total RNA and/or mRNA present in each sample using hybridization with radiolabeled complementary DNA to 18S rRNA and/or transcription factor S-II, as indicated in the figure legends (12; 27). The murine ERp72 2.5 kb cDNA was excised with BamHI from pcD72-1 (19). The 1235 bp murine GRP75 coding fragment was excised with HindIII from pG7z-PBP1.8 (6). A 1.5 kb coding fragment of GRP78 cDNA was produced by digestion of p3C5 with EcoRI and PstI (15). A 1.4 kb hamster GRP94 coding fragment was produced by EcoRI and Sa/K digestion of p4A3 (15). A 664 bp coding fragment of rat calreticulin (nucleotides 148 to 812) was produced by PCR from GT10.U1 (23). The entire 2.4 kb cDNA of murine PDI was excised from pGEM59.4 with SacI and BamHII (19). A 1 kb coding fragment of hamster GRP170 cDNA was excised with EcoRI and XhoI from pCRtmII (16). The 1.9 kb cDNA of murine ERp57 was excised with HindIII and SstI from pERp61 (18). The 1 kb cDNA of murine HSC70 was excised with PstI from phsc1.5 (9). The 1.3 kb PEPCK coding fragment was produced by SphI followed by SalI digestions of pGEM5ZEP (a gift from Dr. Ganner D. K. Vanderbilt University School of Medicine, Nashville, Tenn.). The fragments were isolated by agarose gel electrophoresis and radioactively labeled using a ^T7QuickPrime Kit (Pharmacia) according to the manufacturer's instructions.

The conditions of data set [3]: STZ-treated animals; general statement; cited from earlier work.
Data set [4] in a line: Life span of mice. Format: in vivo. The conditions noted are these: mice fed aminoguanidine.
The subject of data set [5] is PEPCK mRNA. The experiment in a line: Hepatic PEPCK mRNA in fasted and refed mice (positive control). Format: in vivo. The conditions noted are these: liver; mice fasted 48 h or refed. How it is done: as §1, with “The first injection was administered 30 min before feeding, and the second injection was administered 30 min after feeding. Mice were killed 1.5 h after the start of feeding. Drug-injected mice consumed similar amounts of food as control animals during the feeding period. All animal use protocols were approved by the institutional animal use committee of the University of California, Riverside.” left out
Mice were killed and the livers, kidneys, and muscle were removed. […] The RNA was analyzed using Northern blots to verify its integrity. Dot blots were used to quantify mRNA levels (24; 27). […]

Entries after “also recorded” stand apart in the source; their conditions may differ. Read-outs that look alike come from different tables or passages of the source.

`CN(N=O)C(=O)N[C@H]1C(O)O[C@H](CO)[C@@H](O)[C@@H]1O` (mixture of isomers) [STZ, streptozotocin]: in data set [1] (STZ-diabetic mice, diabetic about 4 weeks), the “hepatic gene expression compared with young CR and young control mice” value was “very different”. Also, in data set [2], the “GRP78 mRNA response to feeding (refed mice)” value (“GRP78 mRNA response to feeding” below) was “blunted response; also recorded: significantly reduced” and the “GRP78 mRNA in fasted mice” value is given as “did not modify”. Besides, the “effect on life span” value in data set [3] is “shortens”.

As to `N=C(N)NN` [aminoguanidine, Aminoguanidine], the “effect on life span” value in data set [4] is reported as “little or no effect”. Besides, in data set [1] (mice fed aminoguanidine), the “correlation of gene expression with old CR or old control mice” value is “did not correlate” and the “effect on hepatic gene expression” value is listed as “large effect”.

`C[C@@H]1C[C@@H]([C@H](O)CC2CC(=O)NC(=O)C2)C(=O)[C@@H](C)C1` [cycloheximide]: in data set [5], the “PEPCK mRNA in both fasted and refed mice” value was “increased”. Besides, in data set [2], the “GRP78 mRNA response to feeding” value was “strongly induced” and the “GRP78 mRNA in fasted mice” value is recorded as “strongly induced; also recorded: induced the mRNA to the same extent”.

As for `CCCC(=O)Nc1ncnc2c1ncn2[C@@H]1O[C@@H]2COP(=O)(O)O[C@H]2[C@H]1OC(=O)CCC` [dibutyryl cAMP, Dibutyryl cAMP], the “postprandial induction of GRP78 mRNA in STZ-diabetic mice” value is “obliterated” in data set [2] (listed as cAMP) and “absence of a feeding response” in data set [2] (listed as dibutyryl-cAMP). Further, the figures for the “GRP78 mRNA response to feeding” value in data set [2] and in data set [2] (listed as dibutyryl-cAMP) were “reduced the response” and “blunted”, respectively.

In the case of `COc1ccc(C[C@H](N)C(=O)N[C@H]2[C@@H](O)[C@H](n3cnc4c(N(C)C)ncnc43)O[C@@H]2CO)cc1` [puromycin], in data set [2], the “GRP78 mRNA response to feeding” value is “fully induced” and the “GRP78 mRNA in fasted mice” value is “modestly induced; also recorded: partial induction”.

Regarding glucagon, in data set [2], the “GRP78 mRNA response to feeding” value is listed as “reduced the response; also recorded: blunted”.

Values taken from US6406853B1, “Interventions to mimic the effects of calorie restriction” (The Regents of the University of California, priority 1999, dated 2002).
